17 compounds from PubChem BioAssay (NCI) can be followed below.

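Tested at 5 concentrations; 48 h exposure; 96-well plates; endpoints linearly interpolated, else capped at highest concentration. TGI marks complete inhibition of growth.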 Where a SMILES comes first, the peptide text is derived from it. The star is where a group is joined. Boc = CC(C)(C)OC(=O)*

The first assay has as its system MOLT-4 leukemia. Briefly: NCI anticancer screen, dose series, 48 h.
In the case of `COc1ccc2c(c1)C(=O)C1CC(=O)CCC21` (configuration not stated), the TGI is > 100 µM.

For `COc1cccc(NC(=O)CSc2nnc(-c3ccc(NC(C)=O)cc3)o2)c1`, the TGI is > 100 µM.

Regarding `Clc1ccc(Nc2nc3ccccc3nc2-c2cccs2)cc1Cl`, the TGI is > 100 µM.

In turn, `CCn1c2ccccc2c2ccc3c(c21)C(=O)C=CC3=O` gave a TGI of 17.2 µM.

Consider `COC(=O)c1onc(-c2c(OC)cc(OC)cc2OC)c1C(=O)OC`, for which the TGI is > 100 µM.

Turning to `CCCCCCCOc1ccc(/C=C\c2cc[n+](CCCCCCCC[n+]3ccc(/C=C\c4ccc(OCCCCCCC)cc4)cc3)cc2)cc1`, the TGI turned out to be 62.2 µM.

In the case of `CC(C)(C)OC(=O)NC(Cc1ccc(O)cc1)C(=O)N1CCCC1C(=O)O` (stereo not drawn) (Boc-Tyr-Pro-OH; configuration not given here), the TGI is > 100 µM.

As for `O=C(O)c1ccc(C2COc3ccc(Cl)cc3C2)cc1` (configuration not stated), the TGI was > 100 µM.

For `CC(=O)NC(CCCNC(=O)N(CCCl)N=O)C(=O)NCc1ccccc1` (configuration not stated), the TGI is > 100 µM.

Turning to `COc1cccc(OC)c1C(=O)OCc1ccccc1`, the TGI was > 100 µM.

In turn, `Cc1ccc(/C=C/C(=O)C(C)(C)CN2CCCCC2)cc1` displayed a TGI of 7.55 µM.

On to `CC(=O)CN(Cc1cc(C)c2c(c1)c1ccccc1n2Cc1ccccc1)S(=O)(=O)c1ccc(C)cc1`, for which the TGI was > 100 µM.

For the compound `O=C1NC(=O)C2C(=O)NC(=O)C1C2c1c(Cl)cccc1Cl` (configuration not stated), the TGI is > 100 µM.

In the case of `O=C1OC(Cc2ccccc2)(N2CCCC2=O)C1c1ccccc1` (configuration not stated), the TGI was > 100 µM.

On to `CC(=O)C(CN(CC(C)C)CC(C)C)C(c1ccccc1)c1c(O)c2ccccc2oc1=O` (configuration not stated), for which the TGI was > 100 µM.

Turning to `CC1(C)OC(=O)C(C#N)=C1/C=C/c1coc2ccc(Cl)cc2c1=O`, the TGI was found to be 94.1 µM.

In another assay the test system is DMS 273 small cell lung. In words: NCI anticancer screen, dose series, 48 h.
On to `COc1ccc2c(c1)C(=O)C1CC(=O)CCC21` (configuration not stated), for which the TGI was > 100 µM.

Regarding `COc1cccc(NC(=O)CSc2nnc(-c3ccc(NC(C)=O)cc3)o2)c1`, the TGI is > 100 µM.

As for `Clc1ccc(Nc2nc3ccccc3nc2-c2cccs2)cc1Cl`, the TGI was > 100 µM.

`CCn1c2ccccc2c2ccc3c(c21)C(=O)C=CC3=O` displayed a TGI of 33.8 µM.

In the case of `O=c1nc(NC2CCCCO2)ccn1CCO` (configuration not stated), the TGI was > 100 µM.

Turning to `COC(=O)c1onc(-c2c(OC)cc(OC)cc2OC)c1C(=O)OC`, the TGI was > 100 µM.

With `CCCCCCCOc1ccc(/C=C\c2cc[n+](CCCCCCCC[n+]3ccc(/C=C\c4ccc(OCCCCCCC)cc4)cc3)cc2)cc1`, the TGI is 71.1 µM.

For the compound `CC(C)(C)OC(=O)NC(Cc1ccc(O)cc1)C(=O)N1CCCC1C(=O)O` (stereo not drawn) (Boc-Tyr-Pro-OH; configuration not given here), the TGI was > 100 µM.

Turning to `O=C(O)c1ccc(C2COc3ccc(Cl)cc3C2)cc1` (configuration not stated), the TGI was > 100 µM.

For the compound `CC(=O)NC(CCCNC(=O)N(CCCl)N=O)C(=O)NCc1ccccc1` (configuration not stated), the TGI was > 100 µM.

Compound `Cc1ccc(/C=C/C(=O)C(C)(C)CN2CCCCC2)cc1` had a TGI of 11.7 µM.

With `CC(=O)CN(Cc1cc(C)c2c(c1)c1ccccc1n2Cc1ccccc1)S(=O)(=O)c1ccc(C)cc1`, the TGI is > 100 µM.

Turning to `O=C1NC(=O)C2C(=O)NC(=O)C1C2c1c(Cl)cccc1Cl` (configuration not stated), the TGI was > 57.5 µM.

Turning to `CC1(C)OC(=O)C(C#N)=C1/C=C/c1coc2ccc(Cl)cc2c1=O`, the TGI was > 100 µM.

The test system of another assay is UACC-257 melanoma. In words: NCI anticancer screen, dose series, 48 h.
`COc1ccc2c(c1)C(=O)C1CC(=O)CCC21` (configuration not stated): the TGI is > 100 µM.

In the case of `COc1cccc(NC(=O)CSc2nnc(-c3ccc(NC(C)=O)cc3)o2)c1`, the TGI is > 100 µM.

With `Clc1ccc(Nc2nc3ccccc3nc2-c2cccs2)cc1Cl`, the TGI is > 100 µM.

For the compound `CCn1c2ccccc2c2ccc3c(c21)C(=O)C=CC3=O`, the TGI came to 27.7 µM.

For `O=c1nc(NC2CCCCO2)ccn1CCO` (configuration not stated), the TGI is > 100 µM.

`COC(=O)c1onc(-c2c(OC)cc(OC)cc2OC)c1C(=O)OC`: the TGI is > 100 µM.

As for `CCCCCCCOc1ccc(/C=C\c2cc[n+](CCCCCCCC[n+]3ccc(/C=C\c4ccc(OCCCCCCC)cc4)cc3)cc2)cc1`, the TGI was > 100 µM.

As to `CC(C)(C)OC(=O)NC(Cc1ccc(O)cc1)C(=O)N1CCCC1C(=O)O` (stereo not drawn) (Boc-Tyr-Pro-OH; configuration not given here), the TGI was > 100 µM.

For `O=C(O)c1ccc(C2COc3ccc(Cl)cc3C2)cc1` (configuration not stated), the TGI was > 100 µM.

Regarding `CC(=O)NC(CCCNC(=O)N(CCCl)N=O)C(=O)NCc1ccccc1` (configuration not stated), the TGI was > 100 µM.

Consider `COc1cccc(OC)c1C(=O)OCc1ccccc1`, for which the TGI was > 100 µM.

`Cc1ccc(/C=C/C(=O)C(C)(C)CN2CCCCC2)cc1` showed a TGI of 23.2 µM.

For the compound `CC(=O)CN(Cc1cc(C)c2c(c1)c1ccccc1n2Cc1ccccc1)S(=O)(=O)c1ccc(C)cc1`, the TGI is > 100 µM.

As to `O=C1NC(=O)C2C(=O)NC(=O)C1C2c1c(Cl)cccc1Cl` (configuration not stated), the TGI was > 100 µM.

`O=C1OC(Cc2ccccc2)(N2CCCC2=O)C1c1ccccc1` (configuration not stated): the TGI was > 100 µM.

With `CC(=O)C(CN(CC(C)C)CC(C)C)C(c1ccccc1)c1c(O)c2ccccc2oc1=O` (configuration not stated), the TGI is > 100 µM.

`CC1(C)OC(=O)C(C#N)=C1/C=C/c1coc2ccc(Cl)cc2c1=O`: the TGI was > 100 µM.

In the next assay the test system is DMS 114 small cell lung. Briefly: NCI anticancer screen, dose series, 48 h.
On to `COc1ccc2c(c1)C(=O)C1CC(=O)CCC21` (configuration not stated), for which the TGI was > 100 µM.

For `COc1cccc(NC(=O)CSc2nnc(-c3ccc(NC(C)=O)cc3)o2)c1`, the TGI is > 100 µM.

As to `CCn1c2ccccc2c2ccc3c(c21)C(=O)C=CC3=O`, the TGI turned out to be 21.7 µM.

For `O=c1nc(NC2CCCCO2)ccn1CCO` (configuration not stated), the TGI was > 100 µM.

For the compound `COC(=O)c1onc(-c2c(OC)cc(OC)cc2OC)c1C(=O)OC`, the TGI is > 100 µM.

With `CCCCCCCOc1ccc(/C=C\c2cc[n+](CCCCCCCC[n+]3ccc(/C=C\c4ccc(OCCCCCCC)cc4)cc3)cc2)cc1`, the TGI came to 36 µM.

Turning to `CC(C)(C)OC(=O)NC(Cc1ccc(O)cc1)C(=O)N1CCCC1C(=O)O` (stereo not drawn) (Boc-Tyr-Pro-OH; configuration not given here), the TGI is > 100 µM.

On to `O=C(O)c1ccc(C2COc3ccc(Cl)cc3C2)cc1` (configuration not stated), for which the TGI was > 100 µM.

Consider `CC(=O)NC(CCCNC(=O)N(CCCl)N=O)C(=O)NCc1ccccc1` (configuration not stated), for which the TGI is > 100 µM.

Take `COc1cccc(OC)c1C(=O)OCc1ccccc1`: the TGI is > 100 µM.

On to `CC(=O)CN(Cc1cc(C)c2c(c1)c1ccccc1n2Cc1ccccc1)S(=O)(=O)c1ccc(C)cc1`, for which the TGI is > 100 µM.

As for `O=C1NC(=O)C2C(=O)NC(=O)C1C2c1c(Cl)cccc1Cl` (configuration not stated), the TGI was > 53.5 µM.

As to `O=C1OC(Cc2ccccc2)(N2CCCC2=O)C1c1ccccc1` (configuration not stated), the TGI was determined as 81 µM.

Take `CC(=O)C(CN(CC(C)C)CC(C)C)C(c1ccccc1)c1c(O)c2ccccc2oc1=O` (configuration not stated): the TGI is > 100 µM.

Consider `CC1(C)OC(=O)C(C#N)=C1/C=C/c1coc2ccc(Cl)cc2c1=O`, for which the TGI was > 100 µM.
